Laboratory results: US4361511A, “Benzodiazepine derivatives” (Hoffmann-La Roche Inc., priority 1980, dated 1982)

What was measured:
[1] = tested on: adrenalectomised rats treated with aldosterone; experiment: aldosterone-antagonistic activity in adrenalectomised rats (urine volume, sodium and potassium excretion over 3 hours); type: in vivo, Female Holtzmann rats; conditions: for (K+) potassium excretion in %, based on control animals / (Na+) sodium excretion in %, based on control animals / Volume (urine volume) in %, based on control animals: 1 mg/kg p.o., aldosterone 4 mmg/kg s.c. 30 min later, vs animals treated only with aldosterone, urine collected 3 h
Protocol: If compounds of formula I are administered to the animals before the treatment with aldosterone, then there is observed, in comparison to animals treated only with aldosterone (control animals), a pronounced increase of the sodium excretion (i.e. the sodium retention caused by aldosterone is antagonised), whereas the potassium excretion and the urine volume are influenced to a lesser extent.
The standard experiment is carried out as follows:
Female Holtzmann rats (150-180 g) are bilaterally adrenalectomised 70 to 74 hours before the beginning of the experiment. After the operation, the animals receive a customary rat dry feed and 0.9 percent sodium chloride solution for drinking. 16 to 17 hours before the beginning of the experiment the feed is removed from the animals, but they can subsequently drink, as before, 0.9 percent sodium chloride solution ad libitum. At the beginning of the experiment the substance to be tested as an aldosterone-antagonist is administered to the animals by means of a stomach probe. 30 minutes later the animals receive a subcutaneous injection of 4 mmg/kg of aldosterone. After a further 90 minutes, the urinary bladders of the animals are emptied by careful suprapubic pressure, whereupon the animals are placed individually in metabolic cages without food and without drink. The urine of the animals is then collected for 3 hours, whereupon their urinary bladders are once more emptied. The spontaneously excreted urine and the remaining urine obtained at the conclusion of the experiment by pressing-out the urinary bladders are collected in graduated centrifuge glasses. Sodium and potassium concentrations in the urine are determined with a flame photometer.
(§1) The following Table contains results obtained in the previously described experiment with representative compounds of formula I. In this Table there are given for each compound in question the dosage administered (in mg/kg p.o.) as well as the percentage variation in the urine volume), the sodium excretion and the potassium excretion in comparison with the control animals (i.e. in comparison with the animals treated only with aldosterone). Moreover, the Table contains data relating to the acute toxicity of the compounds investigated (LD 50 in mg/kg in the case of a single oral administration to mice).

[2] = acute toxicity, single oral administration to mice; conditions: mouse, in vivo
Text: as §1

[3] = in comparison to untreated animals

CN(C)C(=O)Nc1c(Cl)cc2c(c1Cl)C(c1ccccc1F)=NCC(=O)N2C [Example 4, 3-[6,8-dichloro-5-(o-fluorophenyl)-2,3-dihydro-1-methyl-2-oxo-1H-1,4-benzodiazepin-7-yl]-1,1-dimethylurea]
(K+) potassium excretion in %, based on control animals [1]: 160%
(Na+) sodium excretion in %, based on control animals [1]: 330%
Volume (urine volume) in %, based on control animals [1]: 152%
LD50 [2]: 2500 mg/kg

CN1C(=O)CN=C(c2ccccc2F)c2c1cc(Cl)c(NC(=O)N1CCN(CCO)CC1)c2Cl [Example 5, N-[6,8-dichloro-5-(o-fluorophenyl)-2,3-dihydro-1-methyl-2-oxo-1H-1,4-benzodiazepin-7-yl]-4-(2-hydroxyethyl)-1-piperazinecarboxamide]
(K+) potassium excretion in %, based on control animals [1]: 120%
(Na+) sodium excretion in %, based on control animals [1]: 300%
Volume (urine volume) in %, based on control animals [1]: 173%
LD50 [2]: > 5000 mg/kg

CN1C(=O)CN=C(c2ccccc2F)c2c1cc(Cl)c(NC(=O)NCCN1CCOCC1)c2Cl [Example 6, 1-[6,8-dichloro-5-(o-fluorophenyl)-2,3-dihydro-1-methyl-2-oxo-1H-1,4-benzodiazepin-7-yl]-3-(2-morpholinoethyl)urea]
(K+) potassium excretion in %, based on control animals [1]: 91%
(Na+) sodium excretion in %, based on control animals [1]: 254%
Volume (urine volume) in %, based on control animals [1]: 183%
LD50 [2]: 5000 mg/kg

C[C@]12CCC(=O)C=C1CC[C@@H]1[C@@H]2[C@@H](O)C[C@]2(C=O)[C@@H](C(=O)CO)CC[C@@H]12 [aldosterone, reference compound]
excreted urine volume after aldosterone alone [1, 3]: reduction of the excreted urine volume
potassium excretion after aldosterone alone [1, 3]: increased potassium excretion
sodium excretion after aldosterone alone [1, 3]: pronounced reduction of the sodium excretion
